Test results as given in publication PMC3720860, “Molecular and Functional Characterization of Odorant-Binding Protein Genes in an Invasive Vector Mosquito, Aedes albopictus” (PLoS ONE, 2013).

Key:
Format in all cases: binding
[1] = target: T1, AalbOBP37 (Aedes albopictus, UniProt M4VP05); test: 1-NPN competitive fluorescence displacement; conditions: 20 mM sodium acetate, pH 7.4, 25 C; 25 ug/ml protein; ligand 6.4-19.2 uM; 32 uM 1-NPN
T1 construct: 6xHis-tag fusion, pET-22b(+), E. coli BL21 (DE3); Ni-NTA and gel filtration
T1 sequence (M4VP05 19-149 limits assumed): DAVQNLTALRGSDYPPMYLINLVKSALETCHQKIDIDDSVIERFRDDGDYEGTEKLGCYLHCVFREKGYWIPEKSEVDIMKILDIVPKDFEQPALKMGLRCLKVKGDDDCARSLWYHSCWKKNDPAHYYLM

[2] = target: T2, AalbOBP39 (Aedes albopictus, UniProt M4W733); test: 1-NPN competitive fluorescence displacement; conditions: 20 mM sodium acetate, pH 7.4, 25 C; 25 ug/ml protein; ligand 6.4-19.2 uM; 30.4 uM 1-NPN
T2 construct: 6xHis-tag fusion, pET-22b(+), E. coli BL21 (DE3); Ni-NTA and gel filtration
T2 sequence (M4W733 19-143): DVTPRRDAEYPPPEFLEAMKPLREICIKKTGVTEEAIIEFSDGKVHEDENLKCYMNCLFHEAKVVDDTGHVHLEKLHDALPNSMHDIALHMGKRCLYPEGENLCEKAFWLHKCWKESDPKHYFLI

[3] = target: T1, AalbOBP37; test: direct fluorescence titration; conditions: 20 mM sodium acetate, pH 7.4, 25 C; 25 ug/ml protein; excitation 337 nm; reporter ligand
[4] = target: T2, AalbOBP39; test: direct fluorescence titration; conditions: 20 mM sodium acetate, pH 7.4, 25 C; 25 ug/ml protein; excitation 337 nm; reporter ligand

| SMILES | normalized 1-NPN fluorescence [1] | normalized 1-NPN fluorescence [2] | direct fluorescence titration [3] | direct fluorescence titration [4] |
| --- | --- | --- | --- | --- |
| C=CC(O)CCCCC (stereo not shown) [1-octen-3-ol] | AalbOBP37 showed high affinity to DEET and 1-octen-3-ol | AalbOBP39 showed relatively low affinity to DEET and 1-octen-3-ol |  |  |
| CCN(CC)C(=O)c1cccc(C)c1 [DEET] | AalbOBP37 showed high affinity to DEET and 1-octen-3-ol | AalbOBP39 showed relatively low affinity to DEET and 1-octen-3-ol |  |  |
| c1ccc(Nc2cccc3ccccc23)cc1 [N-phenyl-1-naphthylamine] |  |  | only target OBPs could bind 1-NPN, which showed increasing fluorescent intensity | only target OBPs could bind 1-NPN, which showed increasing fluorescent intensity |
| c1ccc2[nH]ccc2c1 [indole] | AalbOBP37 and AalbOBP39 exhibited relatively strong binding to both indole and skatole | AalbOBP37 and AalbOBP39 exhibited relatively strong binding to both indole and skatole |  |  |
| Cc1c[nH]c2ccccc12 [skatole] | AalbOBP37 and AalbOBP39 exhibited relatively strong binding to both indole and skatole | AalbOBP37 and AalbOBP39 exhibited relatively strong binding to both indole and skatole |  |  |
